Values joined by “and” are separate entries in the source; they are usually repeats but may differ in a detail not shown here. Identical values can stand only once. Toxic doses and inconclusive results are not listed.

This passage reports T/C results from PubChem BioAssay AID330 (DTP/NCI, 2004).

For this experiment, the system named is P388 leukemia ip, CD2F1 mice, survival T/C. The experiment is described as follows: NCI In Vivo Anticancer Drug Screen. Data for tumor model P388 Leukemia (intraperitoneal) in CD2F1 (CDF1) mice. Conditions: endpoint: median survival time, higher = longer survival. In short, it runs like this:
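Mice carrying the transplanted tumor received test compound or vehicle. Survival was recorded in each group, and the value is the treated-group measurement divided by that of the vehicle-treated control group.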

Where [1] appears, read: dose: 60.0 mg/kg/injection, schedule: Q01DX005 (ip), vehicle: saline with Tween-80.
[2] abbreviates: dose: 120.0 mg/kg/injection, schedule: Q01DX005 (ip), vehicle: saline with Tween-80.
The mark [3] stands for this setting: dose: 100.0 mg/kg/injection, schedule: Q01DX001 (ip), vehicle: Klucel (hydroxypropylcellulose) (HPC).
Where [4] appears, read: dose: 50.0 mg/kg/injection, schedule: Q01DX009 (ip), vehicle: Klucel (hydroxypropylcellulose) (HPC).
Setting [5] is: dose: 100.0 mg/kg/injection, schedule: Q01DX009 (ip), vehicle: Klucel (hydroxypropylcellulose) (HPC).

Turning to `COc1ccc(CCN2CCC(CC3CCCCN3)CC2)cc1OC` (stereo not drawn), the T/C was 103 % of control (dose: 12.5 mg/kg/injection, schedule: Q01DX009 (ip), vehicle: distilled water + alcohol); 112 % of control (dose: 25.0 mg/kg/injection, schedule: Q01DX009 (ip), vehicle: distilled water + alcohol); 105 % of control (dose: 50.0 mg/kg/injection, schedule: Q01DX009 (ip), vehicle: distilled water + alcohol); 103 % of control (dose: 100.0 mg/kg/injection, schedule: Q01DX009 (ip), vehicle: distilled water + alcohol).

`COc1ccc(-n2c3c(c4c(N)ncnc42)CCCC3)cc1`: the T/C reads like this: under setting [1], 105 % of control; under setting [2], 93 % of control.

For the compound `CSC(SC)(SC)c1cc(-c2c(Cl)cccc2Cl)no1`, the T/C (dose: 50.0 mg/kg/injection, schedule: Q01DX005 (ip), vehicle: saline with Tween-80) is 93 % of control; the T/C (dose: 100.0 mg/kg/injection, schedule: Q01DX005 (ip), vehicle: saline with Tween-80) is 102 % of control; the T/C (dose: 200.0 mg/kg/injection, schedule: Q01DX005 (ip), vehicle: saline with Tween-80) was 93 % of control.

Regarding `O=[N+]([O-])c1cccc(N/N=C\c2cccc3c(/C=N/Nc4cccc([N+](=O)[O-])c4)c(Cl)n(-c4ccccc4)c23)c1`, the T/C under setting [3] was 86 % of control.

In the case of `CCN(CC)CCSc1c2ccc(Cl)cc2nc2ccc(OC)cc12`, the T/C (dose: 12.5 mg/kg/injection, schedule: Q01DX005 (ip), vehicle: saline) is 106 % of control; the T/C (dose: 25.0 mg/kg/injection, schedule: Q01DX005 (ip), vehicle: saline) was 106 % of control; the T/C (dose: 50.0 mg/kg/injection, schedule: Q01DX005 (ip), vehicle: saline) was 105 % of control and 106 % of control.

For `O=c1cc(O)n2ncnc2[nH]1`, the T/C reads like this: (dose: 25.0 mg/kg/injection, schedule: Q01DX009 (ip), vehicle: saline with Tween-80) 101 % of control; (dose: 50.0 mg/kg/injection, schedule: Q01DX009 (ip), vehicle: saline with Tween-80) 104 % of control; (dose: 100.0 mg/kg/injection, schedule: Q01DX009 (ip), vehicle: saline with Tween-80) 104 % of control; (dose: 200.0 mg/kg/injection, schedule: Q01DX009 (ip), vehicle: saline with Tween-80) 99 % of control.

Consider `CCn1c(=O)c2[nH]c(Cl)nc2n(C2CC2)c1=O`, for which the T/C is 99 % of control under setting [4] and 101 % of control under setting [5].

On to `O=[N+]([O-])O.[Cl-].[Cl-].[NH-]CC[NH-].[NH-]CC[NH-].[Rh+3]`, for which the T/C is, setting by setting: (dose: 12.5 mg/kg/injection, schedule: Q04DX003 (ip), vehicle: distilled water + Tween-80) 106 % of control; (dose: 25.0 mg/kg/injection, schedule: Q04DX003 (ip), vehicle: distilled water + Tween-80) 99 % of control; (dose: 50.0 mg/kg/injection, schedule: Q04DX003 (ip), vehicle: distilled water + Tween-80) 108 % of control; (dose: 100.0 mg/kg/injection, schedule: Q04DX003 (ip), vehicle: distilled water + Tween-80) 111 % of control; (dose: 200.0 mg/kg/injection, schedule: Q04DX003 (ip), vehicle: distilled water + Tween-80) 102 % of control.

Turning to `CN1C(C(=O)Nc2nccs2)=C(O)c2ccccc2S1(=O)=O`, the T/C is, setting by setting: under setting [1], 105 % of control; under setting [2], 98 % of control.

With `C=CCOc1c2c(cc3ccc(=O)oc13)CC=CO2`, the T/C by setting is: (dose: 12.5 mg/kg/injection, schedule: Q01DX009 (ip), vehicle: Klucel (hydroxypropylcellulose) (HPC)) 95 % of control; (dose: 25.0 mg/kg/injection, schedule: Q01DX009 (ip), vehicle: Klucel (hydroxypropylcellulose) (HPC)) 105 % of control; under setting [4], 98 % of control and 100 % of control; under setting [5], 112 % of control.

`CN(C)c1cc(C(=O)O)nc(C(=O)O)c1`: the T/C reads like this: (dose: 25.0 mg/kg/injection, schedule: Q01DX001 (ip), vehicle: Klucel (hydroxypropylcellulose) (HPC)) 101 % of control; (dose: 50.0 mg/kg/injection, schedule: Q01DX001 (ip), vehicle: Klucel (hydroxypropylcellulose) (HPC)) 107 % of control; under setting [3], 107 % of control and 87 % of control.

As for `COC(=O)C(=O)C(C#N)c1ccc([N+](=O)[O-])cc1` (stereo not drawn), the T/C under setting [1] is 101 % of control; the T/C under setting [2] was 93 % of control; the T/C (dose: 240.0 mg/kg/injection, schedule: Q01DX005 (ip), vehicle: saline with Tween-80) was 95 % of control.

`CC1CN1CC(O)C(O)CN1CC1C` (stereo not drawn): the T/C (dose: 0.01 mg/kg/injection, schedule: Q04DX003 (ip), vehicle: saline) was 109 % of control; the T/C (dose: 0.02 mg/kg/injection, schedule: Q04DX003 (ip), vehicle: saline) was 104 % of control; the T/C (dose: 0.15 mg/kg/injection, schedule: Q04DX003 (ip), vehicle: saline) was 160 % of control; the T/C (dose: 0.3 mg/kg/injection, schedule: Q04DX003 (ip), vehicle: saline) was 170 % of control; the T/C (dose: 0.5 mg/kg/injection, schedule: Q04DX003 (ip), vehicle: saline) was 160 % of control; the T/C (dose: 0.6 mg/kg/injection, schedule: Q04DX003 (ip), vehicle: saline) was 170 % of control. The T/C (dose: 0.62 mg/kg/injection, schedule: Q04DX003 (ip), vehicle: saline) was 154 % of control; the T/C (dose: 1.0 mg/kg/injection, schedule: Q04DX003 (ip), vehicle: saline) was 185 % of control; the T/C (dose: 1.25 mg/kg/injection, schedule: Q01DX009 (ip), vehicle: saline with Tween-80) is 272 % of control; the T/C (dose: 1.25 mg/kg/injection, schedule: Q04DX003 (ip), vehicle: saline) was 163 % of control; the T/C (dose: 2.0 mg/kg/injection, schedule: Q04DX003 (ip), vehicle: saline) was 240 % of control; the T/C (dose: 2.5 mg/kg/injection, schedule: Q01DX009 (ip), vehicle: saline with Tween-80) was 95 % of control. In addition, the T/C runs as follows: (dose: 2.5 mg/kg/injection, schedule: Q01DX009 (ip), vehicle: saline) 222 % of control; (dose: 2.5 mg/kg/injection, schedule: Q04DX003 (ip), vehicle: saline) 222 % of control; (dose: 3.0 mg/kg/injection, schedule: Q04DX003 (ip), vehicle: saline) 172 % of control; (dose: 3.3 mg/kg/injection, schedule: Q04DX003 (ip), vehicle: saline) 212 % of control; (dose: 5.0 mg/kg/injection, schedule: Q01DX009 (ip), vehicle: saline) 122 % of control; (dose: 5.0 mg/kg/injection, schedule: Q04DX003 (ip), vehicle: saline) 231 % of control and 183 % of control and 230 % of control. For the same compound, the T/C runs as follows: (dose: 6.0 mg/kg/injection, schedule: Q04DX003 (ip), vehicle: saline) 268 % of control; (dose: 7.5 mg/kg/injection, schedule: Q04DX003 (ip), vehicle: saline) 272 % of control; (dose: 10.0 mg/kg/injection, schedule: Q04DX003 (ip), vehicle: saline) 268 % of control; (dose: 63.0 micrograms/kg/injection, schedule: Q04DX003 (ip), vehicle: saline) 100 % of control; (dose: 125.0 micrograms/kg/injection, schedule: Q04DX003 (ip), vehicle: saline) 100 % of control; (dose: 250.0 micrograms/kg/injection, schedule: Q04DX003 (ip), vehicle: saline) 104 % of control.

Consider `COC(=O)[C@@]12OC[C@]34[C@H]([C@@H](O)[C@@H]1O)[C@@]1(C)CC(=O)C(O)=C(C)[C@@H]1C[C@H]3OC(=O)[C@H](OC(=O)/C=C(\C)C(C)CO)[C@@H]24` (stereo partly drawn), for which, for the setting “dose: 0.5 mg/kg/injection, schedule: Q01DX009 (ip), vehicle: saline + alcohol”, the T/C was 115 % of control.

As to `Fc1ccccc1N/N=c1\nnc2ccccc2s1`, the T/C is, setting by setting: (dose: 50.0 mg/kg/injection, schedule: Q04DX002 (ip), vehicle: saline with Tween-80) 97 % of control; (dose: 100.0 mg/kg/injection, schedule: Q04DX002 (ip), vehicle: saline with Tween-80) 93 % of control; (dose: 200.0 mg/kg/injection, schedule: Q04DX002 (ip), vehicle: saline with Tween-80) 92 % of control.

As to `O=C(Nc1ccc(C2=NCCN2)cc1)c1ccc(C(=O)Nc2ccc(C3=NCCN3)cc2)c(NC(=O)c2ccc(C(=O)Nc3cc(C(=O)Nc4ccc(C5=NCCN5)cc4)ccc3C(=O)Nc3ccc(C4=NCCN4)cc3)cc2)c1`, the T/C runs as follows: (dose: 25.0 mg/kg/injection, schedule: Q01DX010 (ip), vehicle: saline) 90 % of control; (dose: 50.0 mg/kg/injection, schedule: Q01DX010 (ip), vehicle: saline) 86 % of control; (dose: 100.0 mg/kg/injection, schedule: Q01DX010 (ip), vehicle: saline) 100 % of control; (dose: 200.0 mg/kg/injection, schedule: Q01DX010 (ip), vehicle: saline) 100 % of control.
